# Assay results taken from ChEMBL document CHEMBL5465560, “Selectivity Literature for EUbOPEN Chemogenomic Library” (2024).
# Columns and labels:
# [1] = target: Phosphatidylinositol 4-phosphate 5-kinase type-1 gamma (Homo sapiens) (UniProt O60331); assay: Selectivity interaction (KinomeScan (DiscoverX)) EUB0000666a PIP5K1C; settings: at 10 µM
# [2] = target: Receptor tyrosine-protein kinase erbB-2 (Homo sapiens, UniProt P04626); assay: Selectivity interaction (KinomeScan (DiscoverX)) EUB0001079a ERBB2; settings: at 1 µM
# Receptor tyrosine-protein kinase erbB-2, sequence (P04626 whole entry): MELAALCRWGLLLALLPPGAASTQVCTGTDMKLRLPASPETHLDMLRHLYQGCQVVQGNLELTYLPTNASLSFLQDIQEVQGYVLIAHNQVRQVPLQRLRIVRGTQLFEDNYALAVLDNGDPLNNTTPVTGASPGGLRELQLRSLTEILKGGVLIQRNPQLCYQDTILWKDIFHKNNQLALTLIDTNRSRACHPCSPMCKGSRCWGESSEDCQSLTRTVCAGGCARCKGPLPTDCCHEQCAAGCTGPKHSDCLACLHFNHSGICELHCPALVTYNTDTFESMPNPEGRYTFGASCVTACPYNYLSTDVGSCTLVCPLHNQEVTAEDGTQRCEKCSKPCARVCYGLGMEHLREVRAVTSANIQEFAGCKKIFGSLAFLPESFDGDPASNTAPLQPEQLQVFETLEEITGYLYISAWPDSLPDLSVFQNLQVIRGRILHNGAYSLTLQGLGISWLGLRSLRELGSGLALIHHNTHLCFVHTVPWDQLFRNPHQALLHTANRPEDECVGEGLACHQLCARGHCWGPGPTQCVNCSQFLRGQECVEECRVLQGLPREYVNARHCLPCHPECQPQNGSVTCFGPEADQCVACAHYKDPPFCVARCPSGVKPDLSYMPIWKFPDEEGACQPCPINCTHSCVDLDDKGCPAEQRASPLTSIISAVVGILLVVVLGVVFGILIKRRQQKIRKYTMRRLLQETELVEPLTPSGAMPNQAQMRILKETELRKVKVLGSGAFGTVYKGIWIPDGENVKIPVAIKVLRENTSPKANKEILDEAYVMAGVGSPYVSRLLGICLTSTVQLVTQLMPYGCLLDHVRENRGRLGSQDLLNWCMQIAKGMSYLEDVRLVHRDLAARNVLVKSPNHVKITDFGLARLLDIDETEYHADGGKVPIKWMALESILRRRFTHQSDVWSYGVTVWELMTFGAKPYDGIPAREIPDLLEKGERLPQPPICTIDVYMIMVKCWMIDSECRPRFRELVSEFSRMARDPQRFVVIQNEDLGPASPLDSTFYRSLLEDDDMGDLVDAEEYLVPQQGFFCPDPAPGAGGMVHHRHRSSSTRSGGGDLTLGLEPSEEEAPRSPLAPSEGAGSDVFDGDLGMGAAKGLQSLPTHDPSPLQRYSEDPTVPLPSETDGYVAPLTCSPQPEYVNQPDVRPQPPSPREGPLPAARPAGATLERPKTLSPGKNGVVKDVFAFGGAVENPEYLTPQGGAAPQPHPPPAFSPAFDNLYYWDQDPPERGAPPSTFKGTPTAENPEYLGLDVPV
# [3] = target: T1, Phosphatidylinositol 5-phosphate 4-kinase type-2 gamma (Homo sapiens) (UniProt Q8TBX8); assay: Selectivity interaction (Kinase panel (KiNativ target engagement assay in Jurkat cells)) EUB0001635a PIP4K2C; type: cell-based; settings: Selectivity number of off-targets 0.0, Selectivity number of targets 233.0, Source Knowledge https://www.sciencedirect.com/science/article/pii/S2451945619300674?via%3Dihub, at 1 µM
# T1 sequence (whole entry): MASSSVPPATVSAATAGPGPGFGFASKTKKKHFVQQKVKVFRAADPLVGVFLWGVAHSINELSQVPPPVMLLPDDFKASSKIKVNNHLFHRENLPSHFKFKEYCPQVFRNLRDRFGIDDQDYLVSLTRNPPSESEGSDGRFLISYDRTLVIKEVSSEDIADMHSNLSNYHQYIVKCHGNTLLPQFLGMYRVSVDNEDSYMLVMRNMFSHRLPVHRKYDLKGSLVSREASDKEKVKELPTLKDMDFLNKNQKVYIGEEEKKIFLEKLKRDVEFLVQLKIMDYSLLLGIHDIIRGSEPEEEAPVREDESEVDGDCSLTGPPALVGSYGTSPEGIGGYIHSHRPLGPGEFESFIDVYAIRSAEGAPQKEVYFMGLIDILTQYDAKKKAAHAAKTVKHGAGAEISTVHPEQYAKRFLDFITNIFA
# [4] = target: T2, Dual specificity mitogen-activated protein kinase kinase 4 (Homo sapiens) (UniProt P45985); assay: Selectivity interaction (ActivX KiNativ screen (kinase selectivity in THP-1 cell lysates)) EUB0000639a MAP2K4; type: subcellular; settings: lysate
# T2 sequence (whole entry): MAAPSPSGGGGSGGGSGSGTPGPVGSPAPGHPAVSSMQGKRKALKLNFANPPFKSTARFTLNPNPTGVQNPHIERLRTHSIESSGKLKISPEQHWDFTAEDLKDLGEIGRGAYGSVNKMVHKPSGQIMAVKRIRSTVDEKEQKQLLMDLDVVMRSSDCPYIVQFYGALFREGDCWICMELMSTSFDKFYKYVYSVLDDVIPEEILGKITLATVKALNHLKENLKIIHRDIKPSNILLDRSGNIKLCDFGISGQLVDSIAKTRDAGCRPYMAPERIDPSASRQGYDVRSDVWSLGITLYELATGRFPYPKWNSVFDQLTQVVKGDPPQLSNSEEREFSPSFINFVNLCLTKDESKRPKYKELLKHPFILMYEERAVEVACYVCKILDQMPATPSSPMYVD
# [5] = target: T3, Dual specificity tyrosine-phosphorylation-regulated kinase 2 (Homo sapiens) (UniProt Q92630); assay: Selectivity interaction (Ambit KINOMEscan and KiNATiv profiling in Jurkat cells) EUB0000090b DYRK2; type: cell-based; settings: at 1 µM
# T3 sequence (whole entry): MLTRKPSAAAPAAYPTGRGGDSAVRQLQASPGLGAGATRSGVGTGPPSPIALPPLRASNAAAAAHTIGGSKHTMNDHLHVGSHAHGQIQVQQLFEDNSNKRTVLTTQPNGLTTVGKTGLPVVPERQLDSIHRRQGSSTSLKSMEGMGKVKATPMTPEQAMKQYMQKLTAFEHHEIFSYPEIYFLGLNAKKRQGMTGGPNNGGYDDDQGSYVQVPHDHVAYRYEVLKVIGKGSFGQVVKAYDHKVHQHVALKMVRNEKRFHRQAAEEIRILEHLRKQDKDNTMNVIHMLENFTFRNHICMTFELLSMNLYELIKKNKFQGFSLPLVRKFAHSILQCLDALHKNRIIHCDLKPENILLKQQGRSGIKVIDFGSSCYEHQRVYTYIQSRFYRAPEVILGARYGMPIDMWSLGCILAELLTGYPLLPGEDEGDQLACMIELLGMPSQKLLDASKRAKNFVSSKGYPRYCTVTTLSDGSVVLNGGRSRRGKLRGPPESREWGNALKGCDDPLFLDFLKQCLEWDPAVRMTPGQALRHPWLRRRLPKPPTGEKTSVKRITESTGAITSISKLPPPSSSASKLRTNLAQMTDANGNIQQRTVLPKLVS
# [6] = target: Dual specificity testis-specific protein kinase 1 (Homo sapiens) (UniProt Q15569); settings: at 10 µM
# Dual specificity testis-specific protein kinase 1 (Homo sapiens), sequence (Q15569 whole entry, looked up): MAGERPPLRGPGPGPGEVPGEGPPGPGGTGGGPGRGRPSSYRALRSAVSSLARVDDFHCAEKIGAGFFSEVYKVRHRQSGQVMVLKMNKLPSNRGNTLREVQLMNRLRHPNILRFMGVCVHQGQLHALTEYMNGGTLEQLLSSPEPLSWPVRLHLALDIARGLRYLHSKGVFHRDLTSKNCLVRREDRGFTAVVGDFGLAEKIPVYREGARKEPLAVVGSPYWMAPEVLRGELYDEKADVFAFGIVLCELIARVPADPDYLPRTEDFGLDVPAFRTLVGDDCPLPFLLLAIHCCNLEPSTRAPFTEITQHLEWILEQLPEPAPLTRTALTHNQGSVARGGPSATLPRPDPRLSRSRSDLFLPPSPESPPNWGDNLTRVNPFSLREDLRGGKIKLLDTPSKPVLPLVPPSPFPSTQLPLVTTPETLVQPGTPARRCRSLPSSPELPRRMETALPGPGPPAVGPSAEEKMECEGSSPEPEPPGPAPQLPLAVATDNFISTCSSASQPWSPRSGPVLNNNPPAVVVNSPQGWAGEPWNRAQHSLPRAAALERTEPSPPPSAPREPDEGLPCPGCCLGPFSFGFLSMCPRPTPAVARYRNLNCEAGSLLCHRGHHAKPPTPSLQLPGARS
# [7] = target: Dual specificity protein kinase CLK1 (Homo sapiens, UniProt P49759); assay: Selectivity interaction (KinomeScan (DiscoverX)) EUB0000607a CLK1; settings: at 10 µM
# Dual specificity protein kinase CLK1, sequence (P49759 whole entry, looked up): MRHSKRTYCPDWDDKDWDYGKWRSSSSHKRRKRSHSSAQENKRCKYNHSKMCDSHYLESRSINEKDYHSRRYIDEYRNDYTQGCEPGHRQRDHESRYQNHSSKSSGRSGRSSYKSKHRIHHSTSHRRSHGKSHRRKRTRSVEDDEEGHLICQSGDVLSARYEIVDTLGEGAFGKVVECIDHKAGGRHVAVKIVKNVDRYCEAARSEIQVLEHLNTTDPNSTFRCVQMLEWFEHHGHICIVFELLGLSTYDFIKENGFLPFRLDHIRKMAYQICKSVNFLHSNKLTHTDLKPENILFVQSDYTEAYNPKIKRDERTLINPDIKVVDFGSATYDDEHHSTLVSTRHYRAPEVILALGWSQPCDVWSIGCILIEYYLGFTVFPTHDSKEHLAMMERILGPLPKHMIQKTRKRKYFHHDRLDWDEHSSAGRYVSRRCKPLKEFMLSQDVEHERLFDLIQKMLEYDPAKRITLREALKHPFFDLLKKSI
# [8] = target: T4, Muscle, skeletal receptor tyrosine-protein kinase (Homo sapiens) (UniProt O15146); assay: Selectivity interaction (ProQinase) EUB0000171b MUSK
# T4 sequence (whole entry): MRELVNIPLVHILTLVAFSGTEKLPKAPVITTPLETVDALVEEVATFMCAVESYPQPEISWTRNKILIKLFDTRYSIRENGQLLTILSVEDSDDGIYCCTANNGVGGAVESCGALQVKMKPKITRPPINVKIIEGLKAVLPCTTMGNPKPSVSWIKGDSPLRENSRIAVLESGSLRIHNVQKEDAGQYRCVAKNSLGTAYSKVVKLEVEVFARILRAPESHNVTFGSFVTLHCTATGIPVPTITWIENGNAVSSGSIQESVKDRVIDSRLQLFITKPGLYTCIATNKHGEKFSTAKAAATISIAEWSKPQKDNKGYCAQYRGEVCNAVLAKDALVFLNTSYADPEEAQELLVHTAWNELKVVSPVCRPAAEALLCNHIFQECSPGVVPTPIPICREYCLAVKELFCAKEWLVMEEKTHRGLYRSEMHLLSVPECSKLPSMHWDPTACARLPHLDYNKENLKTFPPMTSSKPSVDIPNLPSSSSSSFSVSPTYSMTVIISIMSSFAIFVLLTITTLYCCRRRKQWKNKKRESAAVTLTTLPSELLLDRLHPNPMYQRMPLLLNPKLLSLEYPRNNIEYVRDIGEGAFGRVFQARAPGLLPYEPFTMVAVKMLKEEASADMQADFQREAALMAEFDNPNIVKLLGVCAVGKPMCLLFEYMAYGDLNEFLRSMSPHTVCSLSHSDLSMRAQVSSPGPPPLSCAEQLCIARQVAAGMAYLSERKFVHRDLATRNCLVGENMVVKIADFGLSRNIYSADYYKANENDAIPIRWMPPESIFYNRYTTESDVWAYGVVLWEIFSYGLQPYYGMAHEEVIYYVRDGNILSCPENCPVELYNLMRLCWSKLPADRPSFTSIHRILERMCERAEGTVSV
# Phosphatidylinositol 4-phosphate 5-kinase type-1 gamma (Homo sapiens), sequence (O60331 whole entry): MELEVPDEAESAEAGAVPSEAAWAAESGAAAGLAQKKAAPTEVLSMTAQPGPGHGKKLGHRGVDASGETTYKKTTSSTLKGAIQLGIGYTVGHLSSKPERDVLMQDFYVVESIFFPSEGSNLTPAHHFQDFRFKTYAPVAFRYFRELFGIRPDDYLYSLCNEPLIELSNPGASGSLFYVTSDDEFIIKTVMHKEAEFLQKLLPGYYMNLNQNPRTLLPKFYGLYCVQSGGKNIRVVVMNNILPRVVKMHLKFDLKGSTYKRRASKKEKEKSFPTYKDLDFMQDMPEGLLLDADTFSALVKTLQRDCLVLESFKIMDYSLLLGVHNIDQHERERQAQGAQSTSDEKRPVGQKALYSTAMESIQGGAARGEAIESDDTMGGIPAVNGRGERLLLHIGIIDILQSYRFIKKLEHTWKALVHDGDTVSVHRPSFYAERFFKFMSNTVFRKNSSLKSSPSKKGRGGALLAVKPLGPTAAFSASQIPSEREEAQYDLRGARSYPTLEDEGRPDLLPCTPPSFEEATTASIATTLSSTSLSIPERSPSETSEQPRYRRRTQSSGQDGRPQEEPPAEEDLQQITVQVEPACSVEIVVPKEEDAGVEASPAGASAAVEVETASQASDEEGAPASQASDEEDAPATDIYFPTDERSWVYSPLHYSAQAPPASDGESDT
smiles,measurement,setting,value
O=C(NOC[C@H](O)CO)c1ccc(F)c(F)c1Nc1ccc(I)cc1F,% of control,[1],100%
Nc1cnc(N2CCc3cc(S(=O)(=O)Nc4c(F)cc(Cl)cc4F)cc(N4CCCC4=O)c32)nc1 [TP-020n],% of control,[2],100%
C=CC(=O)Nc1ccc(C(=O)Nc2[nH]nc3c2CN(C(=O)N[C@H](CN(C)C)c2ccccc2)C3(C)C)cc1,% of engagement,[3],-2.5%
CC[C@@H]1[C@H](F)C(=O)N[C@@H]1COc1nccc2cc(C(N)=O)c(OC)cc12 [ZIMLOVISERTIB],% of inhibition,[4]; at 0.01 µM,-9.4%
same,% of inhibition,[4]; at 0.04 µM,-17.8%
same,% of inhibition,[4]; at 0.2 µM,0.7%
same,% of inhibition,[4]; at 1 µM,17.6%
same,% of inhibition,[4]; at 5 µM,56.2%
CN(C)C/C=C/C(=O)Nc1ccc(C(=O)N2CCCC(Nc3ncc(Cl)c(-c4c[nH]c5ccccc45)n3)C2)cc1 (stereo not drawn),% of control,[5],7.4%
Cc1cc([C@@H](C)Nc2ccccc2C(=O)O)c2nc(N3CCOCC3)cc(=O)n2c1 [AZD-6482],% of control,[6],100%
CNC(=O)Nc1ccc(-c2nc(N3CC4CCC(C3)O4)c3cnn(C4CCC5(CC4)OCCO5)c3n2)cc1,% of control,[7],29%
C=CC(=O)Nc1cccc(C(=O)Nc2ccc(Nc3cc(-c4[nH]c(SC)nc4C)ccn3)cc2)c1,% of control,[8]; at 1 µM,74%
same,% of control,[8]; at 5 µM,31%
